In patent US7087616B2, “Pyrazolyl pyrimidines” (Bayer CropScience AG, priority 2001, dated 2006):

System: not listed separately
Assay: logP determination by HPLC (EEC Directive 79/831 Annex V.A8)
Type: physicochemical
Details: pH 2.3; HPLC reversed-phase column (C 18), 43° C.; read-out: log P(pH 2.3)
Protocol: The stated logp values were determined in accordance with EEC Directive 79/831 Annex V.A8 by HPLC (High Performance Liquid Chromatography) using a reversed-phase column (C 18). Temperature: 43° C.
Mobile phases for the determination in the acidic range: 0.1% aqueous phosphoric acid, acetonitrile; linear gradient from 10% acetonitrile to 90% acetonitrile.
Calibration was carried out using unbranched alkane-2-ones (having 3 to 16 carbon atoms) with known logp values (determination of the logp values by the retention times using linear interpolation between two successive alkanones).
Molecule `O=C(CSc1nccc(-n2cccn2)n1)OCC(F)(F)C(F)(F)C(F)(F)C(F)F` [Example 58] has a chromatographic logP of 3.42.
Work on `CN(CC(=O)OCC(F)(F)C(F)(F)F)c1nccc(-n2cccn2)n1` [Example 60] yielded a chromatographic logP of 3.2.
Work on `CN(CC(=O)OCC(F)(F)C(F)(F)C(F)(F)C(F)F)c1nccc(-n2cccn2)n1` [Example 73] yielded a chromatographic logP of 3.46.
For `CN(CC(=O)OCC(F)(F)C(F)(F)C(F)(F)F)c1nccc(-n2cc(Cl)cn2)n1` [Example 83], the chromatographic logP was 4.46.
In the case of `O=C(CSc1nccc(-n2cc(Br)cn2)n1)OCC(F)(F)C(F)(F)C(F)(F)F` [Example 90], the chromatographic logP is reported as 4.34.
With `COc1cnn(-c2ccnc(SCC(=O)OCC(F)(F)C(F)(F)C(F)(F)F)n2)c1` [Example 91] the chromatographic logP was 3.78.
With `COc1cnn(-c2ccnc(SCC(=O)OC(C)C(F)(F)C(F)(F)C(F)(F)F)n2)c1` (stereo not drawn) [Example 93] the chromatographic logP was 4.14.
`CC(OC(=O)CSc1nccc(-n2cc(Br)cn2)n1)C(F)(F)C(F)(F)C(F)(F)F` (stereo not drawn) [Example 94] gave a chromatographic logP of 4.73.

Same assay, conditions: reversed-phase HPLC column (C 18); pH 2.3; HPLC reversed-phase column (C 18), 43° C.
Work on `CCOC(=O)CSc1nccc(Br)n1` [Ethyl [(4-bromo-2-pyrimidinyl)thio]acetate] yielded a chromatographic logP of 2.27.
For `CCOC(=O)CSc1nccc(-n2cc(C)cn2)n1` [Example 1, ethyl {[4-(4-methyl-1H-pyrazol-1-yl)-2-pyrimidinyl]thio}acetate], the chromatographic logP was 2.28.
`CCOC(=O)CSc1nccc(-n2nccc2[N+](=O)[O-])n1` [Example 2, ethyl {[4-(5-nitro-1H-pyrazol-1-yl)-2-pyrimidinyl]thio}acetate] gave a chromatographic logP of 2.55.
Molecule `CCOC(=O)CN(C)c1nccc(-n2cccn2)n1` [Example 3, ethyl N-methyl-N-[4-(1H-pyrazol-1-yl)-2-pyrimidinyl]glycinate] has a chromatographic logP of 2.1.

Same assay, conditions: reversed-phase HPLC column (C 18); pH 2.3; HPLC reversed-phase column (C 18), 43° C.; read-out: log P(pH 2.3)
For `CCOC(=O)CSc1nccc(-n2cccn2)n1` [Example 5], the chromatographic logP was 2.19.
Work on `COC(=O)CSc1nccc(-n2cc(Br)cn2)n1` [Example 7] yielded a chromatographic logP of 2.69.
`CCOC(=O)CSc1nccc(-n2ccc(-c3ccc(Cl)cc3)n2)n1` [Example 8] gave a chromatographic logP of 4.5.
Work on `CCOC(=O)CSc1nccc(-n2ncc(SC(F)(F)F)c2C)n1` [Example 9] yielded a chromatographic logP of 4.08.
`CCOC(=O)CSc1nccc(-n2cc([N+](=O)[O-])cn2)n1` [Example 12] showed a chromatographic logP of 2.56.
For `CCOC(=O)CSc1nccc(-n2cc(C#N)cn2)n1` [Example 13], the chromatographic logP was 2.32.
`CCOC(=O)CSc1nccc(-n2ccc(C)n2)n1` [Example 14] gave a chromatographic logP of 2.51.
Work on `CCOC(=O)CSc1nccc(-n2nc(C(F)(F)F)cc2C(F)(F)F)n1` [Example 15] yielded a chromatographic logP of 4.03.
Molecule `CCOC(=O)CSc1nccc(-n2nc(C)c(Cl)c2C)n1` [Example 16] has a chromatographic logP of 3.83.
`CCOC(=O)CSc1nccc(-n2nc(C#N)c3ccccc32)n1` [Example 17] showed a chromatographic logP of 3.64.
In the case of `CCOC(=O)CSc1nccc(-n2ncc3c2CCCC3)n1` [Example 18], the chromatographic logP is reported as 3.34.
`CCOC(=O)CSc1nccc(-n2cc(Cl)cn2)n1` [Example 19] showed a chromatographic logP of 3.01.
In the case of `CCOC(=O)CSc1nccc(-n2cc(OC(C)C)cn2)n1` [Example 20], the chromatographic logP is reported as 3.15.
In the case of `CCOC(=O)CSc1nccc(-n2ncc3ccccc32)n1` [Example 22], the chromatographic logP is reported as 3.34.
Molecule `CCOC(=O)CSc1nccc(-n2cc3ccccc3n2)n1` [Example 23] has a chromatographic logP of 3.11.
In the case of `O=C(CSc1nccc(-n2cccn2)n1)OCCCl` [Example 33], the chromatographic logP is reported as 2.3.
`CCOC(=O)CSc1nccc(-n2cc(Br)c(N)n2)n1` [Example 41] gave a chromatographic logP of 2.18.
In the case of `CCOC(=O)CN(CC)c1nccc(-n2cccn2)n1` [Example 46], the chromatographic logP is reported as 2.53.
With `CCOC(=O)CSc1nccc(-n2cc(C(=O)OCC)cn2)n1` [Example 47] the chromatographic logP was 2.79.
In the case of `CCOC(=O)CN(C)c1nccc(-n2cc(OC(C)C)cn2)n1` [Example 51], the chromatographic logP is reported as 2.89.
Molecule `CCOC(=O)CSc1nccc(-n2cc(CC)cn2)n1` [Example 55] has a chromatographic logP of 2.99.
Molecule `COc1cnn(-c2ccnc(N(C)CC(=O)O)n2)c1` [Example 61] has a chromatographic logP of 1.14.
Work on `CN(CC(=O)O)c1nccc(-n2cc(Br)cn2)n1` [Example 62] yielded a chromatographic logP of 1.91.
Work on `CN(CC(=O)O)c1nccc(-n2cc(Cl)cn2)n1` [Example 63] yielded a chromatographic logP of 1.82.
Molecule `CCOC(=O)CSc1nccc(-n2cc(C(F)(F)F)cn2)n1` [Example 64] has a chromatographic logP of 3.27.
In the case of `CCOC(=O)CN(CC(C)C)c1nccc(-n2cccn2)n1` [Example 69], the chromatographic logP is reported as 3.57.
For `C#Cc1cnn(-c2ccnc(SCC(=O)OCC)n2)c1` [Example 74], the chromatographic logP was 2.71.
With `O=C(O)CSc1nccc(-n2cc(Br)cn2)n1` [Example 76] the chromatographic logP was 1.91.
With `O=C(O)CSc1nccc(-n2cc(Cl)cn2)n1` [Example 82] the chromatographic logP was 1.81.
`COc1cnn(-c2ccnc(SCC(=O)O)n2)c1` [Example 84] showed a chromatographic logP of 1.45.
In the case of `CC(OC(=O)CSc1nccc(-n2cc(Br)cn2)n1)C(F)(F)C(F)(F)F` (stereo not drawn) [Example 92], the chromatographic logP is reported as 4.3.
With `CCOC(=O)CSc1nccc(-n2cc(C(C)=O)cn2)n1` [Example 95] the chromatographic logP was 2.07.
In the case of `C=Cc1cnn(-c2ccnc(SCC(=O)OCC)n2)c1` [Example 96], the chromatographic logP is reported as 2.87.
`CCOC(=O)CSc1nccc(-n2cc(N)cn2)n1` [Example 99] showed a chromatographic logP of 0.94.
With `COc1cnn(-c2ccnc(SCC(=O)OCC(F)(F)F)n2)c1` [Example 101] the chromatographic logP was 2.87.
Molecule `CCOC(=O)CSc1nccc(-n2cc(SC(F)(F)C(F)F)cn2)n1` [Example 102] has a chromatographic logP of 3.45.

System: peach aphids (Myzus persicae)
Assay: Myzus Test/Cabbage
Type: in vivo
Details: 144 h, 500 ppm, Table B 1, cabbage leaves dipped, read-out: Kill rate in % after 6d
Protocol: To produce a suitable preparation of active compound, 1 part by weight of active compound is mixed with the stated amounts of solvent and emulsifier, and the concentrate is diluted with emulsifier-containing water to the desired concentration.
Cabbage leaves (Brassica oleracea) which are heavily infested by peach aphids (Myzus persicae) are treated by being dipped into the preparation of active compound of the desired concentration.
After the desired period of time, the kill in % is determined. 100% means that all aphids have been killed; 0% means that none of the aphids have been killed.
Amounts of solvent, amounts of emulsifier, active compounds, active compound concentrations and test results are shown in the Tables below.
`CCOC(=O)CSc1nccc(-n2cc(Br)cn2)n1` gave a pest or weed control at 500 ppm of 100%.
Work on `CCOC(=O)CSc1nccc(-n2cccn2)n1` [drawing 174] yielded a pest or weed control at 500 ppm of 95%.

Same assay, conditions: 144 h, 500 ppm, Table B 2, cabbage leaves dipped, read-out: Kill rate in % after 6d
Molecule `CCOC(=O)CSc1nccc(-n2cc(-c3ccc(Cl)cc3)cn2)n1` has a pest or weed control at 500 ppm of 100%.
With `O=C(CSc1nccc(-n2cccn2)n1)OCC(F)(F)F` the pest or weed control at 500 ppm was 100%.
Molecule `O=C(CSc1nccc(-n2cccn2)n1)OCC(F)(F)C(F)F` has a pest or weed control at 500 ppm of 100%.
`O=C(CSc1nccc(-n2cccn2)n1)OC(C(F)(F)F)C(F)(F)F` gave a pest or weed control at 500 ppm of 100%.
`O=C(CSc1nccc(-n2cccn2)n1)OCC(Cl)Cl` gave a pest or weed control at 500 ppm of 100%.
`O=C(CSc1nccc(-n2cccn2)n1)OCC(F)(F)C(F)(F)F` gave a pest or weed control at 500 ppm of 100%.
`COc1cnn(-c2ccnc(N(C)CC(=O)OCC(F)(F)F)n2)c1` gave a pest or weed control at 500 ppm of 100%.
In the case of `CCOC(=O)CSc1nccc(-n2cc(-c3ccccc3)cn2)n1` [drawing 177], the pest or weed control at 500 ppm is reported as 100%.
`O=C(O)CSc1nccc(-n2cc(Br)cn2)n1` [drawing 186] showed a pest or weed control at 500 ppm of 100%.
For `CCOC(=O)CSc1nccc(-n2cc(C(F)(F)F)cn2)n1` [drawing 188], the pest or weed control at 500 ppm was 100%.
Molecule `COc1cnn(-c2ccnc(SCC(=O)O)n2)c1` [drawing 190] has a pest or weed control at 500 ppm of 100%.

Same assay, conditions: 144 h, read-out: Kill rate in % after 6d
Molecule `O=C(CSc1nccc(-n2cccn2)n1)OCC(F)(F)C(F)(F)C(F)(F)F` has a pest or weed control at 500 ppm of 100%.
In the case of `CN(CC(=O)OCC(F)(F)C(F)(F)C(F)(F)F)c1nccc(-n2cccn2)n1`, the pest or weed control at 500 ppm is reported as 100%.
Molecule `COc1cnn(-c2ccnc(N(C)CC(=O)OCC(F)(F)C(F)(F)C(F)(F)F)n2)c1` has a pest or weed control at 500 ppm of 100%.
`CN(CC(=O)OCC(F)(F)C(F)(F)C(F)(F)F)c1nccc(-n2cc(Cl)cn2)n1` [drawing 189] showed a pest or weed control at 500 ppm of 100%.
For `CC(OC(=O)CSc1nccc(-n2cc(Cl)cn2)n1)C(F)(F)C(F)(F)C(F)(F)F` (stereo not drawn) [drawing 191], the pest or weed control at 500 ppm was 100%.
